What was measured:
[1] = system: neurons from hippocampi of E18 rat embryos; assay: Neurite growth length (% NTL) in cultured E18 rat hippocampal neurons, 9-point dose response, 48 hours; type: cell-based; conditions: Rattus norvegicus, Neuron, 48 h; for activity at 0.078 µM: 78 nM; for activity at 0.156 µM: 156 nM; for activity at 0.312 µM: 312 nM; for activity at 0.625 µM: 625 nM
Summary of the method: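 Dissociated E18 rat hippocampal neurons at 1500 cells/well on PDL were exposed 48 h to 9 concentrations from 20 μM down to 0.078125 μM. After PFA fixation and βIII-tubulin/Hoechst staining, ArrayScan imaging traced neurites in at least 200–300 neurons per condition to give % NTL.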

Primary Neurons = assay: HCS neurite outgrowth assay (High Content Screening with Primary Neurons); type: cell-based; conditions: Primary neuron

## Cc1cccc(C(=O)c2ccc(C(=O)N[C@@H]3CNC[C@H]3NC(=O)c3ccnc(N)n3)cc2)c1O [Example A74, 2-amino-N-[(3R,4R)-4-[4-(2-hydroxy-3-methylbenzoyl)benzamido]pyrrolidin-3-yl]pyrimidine-4-carboxamide]
[1]
  activity at 0.078 µM: 101%
  activity at 0.156 µM: 103%
  activity at 0.312 µM: 103%
  activity at 0.625 µM: 106%
  activity at 1.25 µM: 105%
  activity at 2.5 µM: 119%
  activity at 5 µM: 121%
  activity at 10 µM: 137%
Primary Neurons
  EC50: 4.5 µM

## Cc1cccc(C(=O)c2ccc(C(=O)N[C@@H]3CNC[C@H]3NC(=O)c3ccncc3)cc2)c1O [Example A75, N-[(3R,4R)-4-[4-(2-hydroxy-3-methylbenzoyl)benzamido]pyrrolidin-3-yl]pyridine-4-carboxamide]
[1]
  activity at 0.078 µM: 97.1%
  activity at 0.156 µM: 93.7%
  activity at 0.312 µM: 105%
  activity at 0.625 µM: 106%
  activity at 1.25 µM: 116%
  activity at 2.5 µM: 119%
  activity at 5 µM: 119%
  activity at 10 µM: 146%
  activity at 20 µM: 140%
Primary Neurons
  EC50: 6.57 µM

## COc1ccc(O)c(C(=O)c2ccc(C(=O)N[C@@H]3CNC[C@H]3NC(=O)c3ccnc(N)n3)cc2)c1 [Example A76, 2-amino-N-[(3R,4R)-4-[4-(2-hydroxy-5-methoxybenzoyl)benzamido]pyrrolidin-3-yl]pyrimidine-4-carboxamide]
[1]
  activity at 0.078 µM: 131%
  activity at 0.156 µM: 121%
  activity at 0.312 µM: 140%
  activity at 0.625 µM: 156%
  activity at 1.25 µM: 169%
  activity at 2.5 µM: 207%
  activity at 5 µM: 317%
  activity at 10 µM: 558%
  activity at 20 µM: 692%
Primary Neurons
  EC50: 8.37 µM

## COc1ccc(O)c(C(=O)c2ccc(C(=O)N[C@@H]3CNC[C@H]3NC(=O)c3ccncc3)cc2)c1 [Example A77, N-[(3R,4R)-4-[4-(2-hydroxy-5-methoxybenzoyl)benzamido]pyrrolidin-3-yl]pyridine-4-carboxamide]
[1]
  activity at 0.078 µM: 118%
  activity at 0.156 µM: 125%
  activity at 0.312 µM: 133%
  activity at 0.625 µM: 144%
  activity at 1.25 µM: 159%
  activity at 2.5 µM: 187%
  activity at 5 µM: 263%
  activity at 10 µM: 469%
  activity at 20 µM: 653%
Primary Neurons
  EC50: 10.4 µM

## Cc1ccc(O)c(C(=O)c2ccc(C(=O)N[C@@H]3CNC[C@H]3NC(=O)c3ccncc3)cc2)c1 [Example A78, N-[(3R,4R)-4-[4-(2-hydroxy-5-methylbenzoyl)benzamido]pyrrolidin-3-yl]pyridine-4-carboxamide]
[1]
  activity at 0.078 µM: 122%
  activity at 0.156 µM: 121%
  activity at 0.312 µM: 133%
  activity at 0.625 µM: 143%
  activity at 1.25 µM: 152%
  activity at 2.5 µM: 176%
  activity at 5 µM: 256%
  activity at 10 µM: 410%
  activity at 20 µM: 503%
Primary Neurons
  EC50: 7.77 µM

## O=C(N[C@@H]1CNC[C@H]1NC(=O)c1ccc(C(=O)c2ccc(Cl)cc2O)cc1)c1ccncc1 [Example A79, N-[(3R,4R)-4-[4-(4-chloro-2-hydroxybenzoyl)benzamido]pyrrolidin-3-yl]pyridine-4-carboxamide]
[1]
  activity at 0.078 µM: 116%
  activity at 0.156 µM: 109%
  activity at 0.312 µM: 117%
  activity at 0.625 µM: 118%
  activity at 1.25 µM: 111%
  activity at 2.5 µM: 116%
  activity at 5 µM: 112%
  activity at 10 µM: 107%
  activity at 20 µM: 94.7%
Primary Neurons
  EC50: > 20 µM

## Cc1ccc(C(=O)c2ccc(C(=O)N[C@@H]3CNC[C@H]3NC(=O)c3ccnc(N)n3)cc2)c(O)c1 [Example A80, 2-amino-N-[(3R,4R)-4-[4-(2-hydroxy-4-methylbenzoyl)benzamido]pyrrolidin-3-yl]pyrimidine-4-carboxamide]
[1]
  activity at 0.078 µM: 125%
  activity at 0.156 µM: 124%
  activity at 0.312 µM: 141%
  activity at 0.625 µM: 158%
  activity at 1.25 µM: 178%
  activity at 2.5 µM: 221%
  activity at 5 µM: 203%
  activity at 10 µM: 160%
  activity at 20 µM: 155%
Primary Neurons
  EC50: 0.534 µM

## Cc1ccc(C(=O)c2ccc(C(=O)N[C@@H]3CNC[C@H]3NC(=O)c3ccncc3)cc2)c(O)c1 [Example A81, N-[(3R,4R)-4-[4-(2-hydroxy-4-methylbenzoyl)benzamido]pyrrolidin-3-yl]pyridine-4-carboxamide]
[1]
  activity at 0.078 µM: 124%
  activity at 0.156 µM: 120%
  activity at 0.312 µM: 127%
  activity at 0.625 µM: 128%
  activity at 1.25 µM: 128%
  activity at 2.5 µM: 125%
  activity at 5 µM: 130%
  activity at 10 µM: 113%
  activity at 20 µM: 116%
Primary Neurons
  EC50: 5.22 µM

## COc1ccc(C(=O)c2ccc(C(=O)N[C@@H]3CNC[C@H]3NC(=O)c3ccnc(N)n3)cc2)c(O)c1 [Example A82, 2-amino-N-[(3R,4R)-4-[4-(2-hydroxy-4-methoxybenzoyl)benzamido]pyrrolidin-3-yl]pyrimidine-4-carboxamide]
[1]
  activity at 0.078 µM: 107%
  activity at 0.156 µM: 115%
  activity at 0.312 µM: 117%
  activity at 0.625 µM: 124%
  activity at 1.25 µM: 122%
  activity at 2.5 µM: 120%
  activity at 5 µM: 120%
  activity at 10 µM: 131%
  activity at 20 µM: 117%
Primary Neurons
  EC50: 0.154 µM

## COc1ccc(C(=O)c2ccc(C(=O)N[C@@H]3CNC[C@H]3NC(=O)c3ccncc3)cc2)c(O)c1 [Example A83, N-[(3R,4R)-4-[4-(2-hydroxy-4-methoxybenzoyl)benzamido]pyrrolidin-3-yl]pyridine-4-carboxamide]
[1]
  activity at 0.078 µM: 106%
  activity at 0.156 µM: 105%
  activity at 0.312 µM: 110%
  activity at 0.625 µM: 118%
  activity at 1.25 µM: 124%
  activity at 2.5 µM: 127%
  activity at 5 µM: 127%
  activity at 10 µM: 123%
  activity at 20 µM: 117%
Primary Neurons
  EC50: 0.486 µM

## Nc1nccc(C(=O)N[C@@H]2CNC[C@H]2NC(=O)c2ccc(C(=O)c3cc(Cl)ccc3O)cc2)n1 [Example A84, 2-amino-N-[(3R,4R)-4-[4-(5-chloro-2-hydroxybenzoyl)benzamido]pyrrolidin-3-yl]pyrimidine-4-carboxamide]
[1]
  activity at 0.078 µM: 115%
  activity at 0.156 µM: 118%
  activity at 0.312 µM: 125%
  activity at 0.625 µM: 139%
  activity at 1.25 µM: 153%
  activity at 2.5 µM: 165%
  activity at 5 µM: 270%
  activity at 10 µM: 492%
  activity at 20 µM: 564%
Primary Neurons
  EC50: 6.86 µM

## O=C(N[C@@H]1CNC[C@H]1NC(=O)c1ccc(C(=O)c2cc(Cl)ccc2O)cc1)c1ccncc1 [Example A85, N-[(3R,4R)-4-[4-(5-chloro-2-hydroxybenzoyl)benzamido]pyrrolidin-3-yl]pyridine-4-carboxamide]
[1]
  activity at 0.078 µM: 134%
  activity at 0.156 µM: 144%
  activity at 0.312 µM: 140%
  activity at 0.625 µM: 153%
  activity at 1.25 µM: 177%
  activity at 2.5 µM: 219%
  activity at 5 µM: 376%
  activity at 10 µM: 534%
  activity at 20 µM: 426%
Primary Neurons
  EC50: 3.82 µM

## O=C(N[C@@H]1CNC[C@H]1NC(=O)c1ccc(C(=O)c2ccccc2O)cc1)c1ccncc1 [Example A86, N-[(3R,4R)-4-[4-(2-hydroxybenzoyl)benzamido]pyrrolidin-3-yl]pyridine-4-carboxamide]
[1]
  activity at 0.078 µM: 124%
  activity at 0.156 µM: 135%
  activity at 0.312 µM: 126%
  activity at 0.625 µM: 134%
  activity at 1.25 µM: 136%
  activity at 2.5 µM: 158%
  activity at 5 µM: 185%
  activity at 10 µM: 271%
  activity at 20 µM: 379%
Primary Neurons
  EC50: 11.9 µM

Source: patent US11926613B2, “Kinase inhibitors for the treatment of central and peripheral nervous system disorders” (UNIVERSITY OF MIAMI, priority 2017, dated 2024)
